The source of these data is patent US10993926B2, “Use of IDHP in preparation of drug or health product for prevention and treatment of coronary atherosclerosis disease” (NORTHWEST UNIVERSITY, priority 2016, dated 2021).

Like-named read-outs stand apart in the source and are kept apart here.

For series [1], the system named is human umbilical vein endothelial cells (HUVEC). Briefly: Proliferation of human umbilical vein endothelial cells, CCK-8 method. As to conditions: 10^−9 to 10^−7 M, 48 hours, compared with blank control, P<0.01, FIG. 1. The format is cell-based. The protocol:
1.1 Detect Proliferation of Human Umbilical Vein Endothelial Cells Promoted by IDHP—CCK-8 Method
Human umbilical vein endothelial cells were seeded in a 96-well plate at a density of approximately 2,500 cells per well. After the cells were culture for 24 hours, the medium was changed for a fresh medium containing drug, 100 μl/well, and the cells were continued culturing for 48 hours. 2 hours before the end of drug treatment, CCK-8 reagent was added to the culture medium in the dark, 10 μl per well. The culture was continued for 2 hours, and then the absorbance at 450 nm was determined with a microplate reader to calculate the cell proliferation rate.

Series [2] has the same test system. Briefly: Migration of HUVEC, scratch method. The format is cell-based. As to conditions: 10^−10 to 10^−7 M, 16 hours, FIG. 2. As to the method: 1.2 Detect Migration of Human Umbilical Vein Endothelial Cells (HUVEC) Promoted by IDHP—Scratch Method
Endothelial cells were seeded on a cover slip pre-coated with gelatin in a 24-well plate at a density of about 10^5 cells per well. After the cells attached to the cover slip and reached confluence, cells were starved in a medium without serum for 4 hours. A home-made tool was used to make scratch on the cover slip with cells. The cover slip was washed twice with PBS, and a medium containing drug was added, 600 μl/well. Control group was immediately fixed with ice-cold methanol at zero time point; rest of the cells were cultured for 16 hours, and then fixed with ice-cold methanol. Images were acquired under a microscope and subjected to statistics analysis.

Series [3] has as its system primary human umbilical vein endothelial cells (HUVEC). The experiment in a line: Tube formation of HUVEC, Matrigel gel method. The format is cell-based. As to conditions: 8 hours on Matrigel, compared with Ctrl control group. As to the method:
1.3 Detect Tube Formation of Human Umbilical Vein Endothelial Cells (HUVEC) Promoted by IDHP—Matrigel Gel Method
Pipette tips and 96-well plate were pre-cooled at −20° C. Matrigel gel was placed on ice and melted, and then added to the pre-cooled 96-well plate (60 μl/well). Avoid the formation of air bubbles. The plate was placed on ice for 5 minutes to level the Matrigel gel, and then put into a cell culture incubator for 30 minutes to solidify. Endothelial cells were added to the wells (5×10^4 cells/well) containing Matrigel gel, and fresh medium containing different concentrations of the drug was added, incubated at 37° C. for 8 hours. The plate was observed under a microscope, 5 fields of view were chosen at 0, 3, 6, 9 o'clock positions and the center of each well, the number of tubules and the integrity of the tubular structure were observed and images were acquired.

The test system of series [4] is zebrafish intersegmental vessels. The experiment in a line: Angiogenesis in transgenic Tg (VEGFR2:GFP) zebrafish (intersegmental vessels). As to conditions: for Length of Blood Vessels / Number of Blood Vessels: zebrafish ISV. The format is in vivo. The protocol:
The transgenic Tg (VEGFR2:GFP) zebrafishes were cultured under the standard conditions of illumination for 14 hours/dark for 10 hours at 28° C. Healthy and mature zebrafishes were put into a breeding container at a ratio of female to male 1/1 or 1/2 for mating. The fertilized eggs were obtained at 9 to 10 o'clock the next day. The fertilized eggs were sterilized and washed, then transferred to zebrafish embryo culture medium and cultured at 28° C.
Drug solution was added to a 24-well culture plate, and 24 hpf embryos were carefully transferred to wells, 8-10 per well, and culture medium was added until a total volume of 2 ml to make sure that the final concentration of DMSO in the medium was not higher than 1%. After 24-hour drug treatment, the embryos were observed under a fluorescence microscope, and the total number of intersegmental vessels in trunk and tail were counted, and the relative generation rate of ISV in each administration group was calculated. Analysis of variance between groups was performed using SPSS software.

For series [5], the system named is human platelet aggregation induced by ADP. Briefly: ADP-induced normal human platelet aggregation, turbidimetry. The format is cell-based. As to conditions: human PRP, ADP 3 μmol/L, compared with ADP alone (Ctrl), FIG. 6. The protocol:
(§1) The whole blood samples of healthy volunteers were collected into the anticoagulant tubes and centrifuged at 800 g for 5 minutes at room temperature. The light yellow supernatant was the platelet-rich plasma (PRP); the remaining solution was further centrifuged at 4000 g for 10 minutes at room temperature, and the supernatant obtained was platelet-poor plasma (PPP).
(§2) PRP was adjusted to 3×10^5 platelets/μl with PPP, 300 μl of adjusted PRP was added to 30 μl of PBS or different concentrations of IDHP and incubated at 37° C. for 3 minutes in a blood coagulation apparatus. Collagen or ADP at a final concentration of 3 μmol/L was added to initiate the aggregation reaction of platelets. The inhibitory effect of IDHP and clopidogrel on platelet aggregation was determined by turbidimetry.

In series [6] the test system is human platelet aggregation induced by collagen. Briefly: Collagen-induced normal human platelet aggregation, turbidimetry. The format is cell-based. As to conditions: human PRP, collagen 3 μmol/L, compared with collagen alone (Ctrl), P<0.001, FIG. 6. As to the method: as §1, §2
The nature of series [7]: Acute toxicity test in mice with rapid administration (IV). As to conditions: both sexes, mouse, in vivo, iv, mice, IV, administration completed within 5 seconds. Format: in vivo. The protocol: (§3) 4.1 Acute Toxicity Test in Mice with Rapid Administration
(§4) Sixty mice were used, half male and half female, and randomly divided into 6 groups. […] The spacing between the concentrations was 1:0.9. After the animals were fasted for 12 hours, each group was subjected to IV administration, the volume was 20 ml/kg, and the administration was completed within 5 seconds for each animal.

In series [8] the test system is mice. Described as above. Format: in vivo. As to the method:
as §3, §4

A short description of series [9]: Acute toxicity test in mice with slow administration (tail vein). Format: in vivo. As to conditions: both sexes, mouse, in vivo, intravenous, mice, tail vein, administration completed within 10 minutes, 14 days observation. The protocol:
(§5) 4.2 Acute Toxicity Test in Mice with Slow Administration
(§6) After housing in the laboratory for 1 day, the test mice with qualified body weight were selected and randomly divided into groups according to body weight and sex, 10 for each group, half male and half female. According to the result of premeasurement, the absolute lethal dose was 2.4 g/kg. The mice were subjected to tail vein administration, the dose for the mice was calculated according to body weight. The doses were 2.4 g/kg, 2.2 g/kg, 2.0 g/kg, and 1.8 g/kg, respectively, and the drug delivery rate was calculated. The administration was completed within 10 minutes. The reactions of the mice were observed after the administration and the death of the mice was recorded within 14 days.
(§7) The main toxic reactions after intravenous administration were central inhibition, respiratory failure, etc. Most of the death occurred during the administration period. […] After 14 days of observation, the mortality rate of the mice was calculated.

In series [10] the test system is mice. Described as above. The format is in vivo. As to the method:
as §5, §6, §7

In another series the test system is red blood cells. Briefly: Hemolysis assay. Format: cell-based, domestic rabbit. As to conditions: rabbit 2% red blood cells, IDHP groups 2 to 10 (10^−3 mol/l), 37±0.5° C., 0.5 h to 3 h. The protocol:
Arterial blood from domestic rabbit was collected, fibrin was removed, red blood cells were washed with physiological saline and then formulated into a 2% red blood cell physiological saline solution. The test was operated according to Table 4, four parallel test tubes in each group.
After the above operation, the tubes were put in water bath at 37±0.5° C., one tube from each group was taken at 0.5 h, 1 h, 2 h and 3 h respectively, centrifuged at 3000 rpm for 15 minutes. Red blood cell hemolysis was observed, at the same time, the morphology of red blood cells was observed under light microscope.

Turning to `CC(C)OC(=O)C(O)Cc1ccc(O)c(O)c1` (stereo not drawn) [IDHP, β-(3,4-dihydroxyphenyl)-α-hydroxyisopropyl propionate], the “proliferation of vascular endothelial cell” value in series [1] was “significantly promoted”. Besides, the “migration of human umbilical vein endothelial cells (HUVEC)” value in series [2] was “could promote the migration”. The “tube formation of primary HUVEC” value in [3] is recorded as “significantly promoted”. Moreover, the “growth of intersegmental vessels and posterior longitudinal blood vessels in zebrafish” value in series [4] (0.01, 0.1 and 1.0 μM, 24-hour treatment, FIG. 4) is “significantly promoted”. The “relative generation rate of ISV” value in series [4] (calculated from total vessel length vs PTK787 control and normal control, FIG. 5) is recorded as “dose-dependent relationship”. Moreover, the “Length of Blood Vessels” value is listed as 287.4 ± 18.8 μm in series [4] (0.01 μM), 359.2 ± 58.2 μm in [4] (0.1 μM) and 447.6 ± 19.5 μm in [4] (1.0 μM). Besides, the “Number of Blood Vessels” value in series [4] (0.01 μM) is 25.0 ± 8.6; in series [4] (0.1 μM), 26.1 ± 3.3. In [5], the “inhibitory effect on ADP-induced platelet aggregation” value is “significantly inhibit”. Further, the “inhibitory effect on collagen-induced platelet aggregation” value in [6] is “more significant”. For the same molecule, the LD50 in series [7] (read-out: LD50 95% confidence interval) is 370 to 486 mg/kg; in series [7] (read-out: LD50 (Bliss method, Feiller heterogeneity correction)), 424 ± 58 mg/kg; in series [7] (read-out: LD50 (regression equation, without heterogeneity correction)) it was 424 mg/kg. Also, the “time until undead animals returned to normal” value in the series with mice [8] (both, mouse, in vivo, iv) came to 10 min. The “Mortality Rate (%)” value in the series with mice [8] (both, mouse, in vivo, iv, 320 mg/kg) is listed as 0%; in the series with mice [8] (both, mouse, in vivo, iv, 375 mg/kg), 40%; in the series on mice [8] (both, mouse, in vivo, iv, 400 mg/kg) it was 40%; in the series with mice [8] (both, mouse, in vivo, iv, 480 mg/kg), 50%; in the series on mice [8] (both, mouse, in vivo, iv, 530 mg/kg), 100%; with mice [8] (both, mouse, in vivo, iv, 629 mg/kg), 100%. For the same molecule, the “time to death after the administration” value in the series with mice [8] (mice, rapid IV, dead animals) was at most 1 min. For the same molecule, the “autopsy of dead mice, vital organs (heart, liver, spleen, lung, kidney, brain, stomach, intestine)” value in the series on mice [8] (mouse, in vivo, iv) is on record as “no abnormality”. In addition, the LD50 at 14 days in series [9] (read-out: LD50 95% confidence limit) is 1960 to 2140 mg/kg; in series [9] (read-out: LD50 (Bliss method)), 2050 mg/kg. The molecule further returned an absolute lethal dose with mice [10] (mice, premeasurement) of 2400 mg/kg. Besides, in the series with mice [10] (mouse, in vivo), the anatomy findings result is reported as “No abnormal changes”. The “red blood cell hemolysis” value in the series on red blood cells is reported as “no obvious hemolysis”.
VEGF: in series [4] (10 ng/ml), the “Length of Blood Vessels” value is on record as 420.0 ± 54.2 μm and the “Number of Blood Vessels” value was 29.3 ± 3.3.
With `COC(=O)[C@H](c1ccccc1Cl)N1CCc2sccc2C1` [clopidogrel, reference compound], in series [5], the “inhibitory effect on ADP-induced platelet aggregation” value was “significantly inhibited”.
`Clc1ccc(Nc2nnc(Cc3ccncc3)c3ccccc23)cc1` [PTK787, reference compound]: the “Number of Blood Vessels” value in series [4] (0.1 μg/ml) is 3.6 ± 1.3. Moreover, the “Length of Blood Vessels” value in series [4] (0.1) stood at 36.4 ± 14.2 μm.
